Assay results taken from the NIST ThermoML archive (doi:10.1016/j.fluid.2008.03.009).

Settings: Liquid, Vibrating tube method

CCCO [propan-1-ol]
Settings	mass density [kg/m3]
298.15 K, 110 kPa	799.54
298.15 K, 5270 kPa	803.6
298.15 K, 9870 kPa	807.01
298.15 K, 14700 kPa	810.46
298.15 K, 20530 kPa	814.46
298.15 K, 25030 kPa	817.44
298.15 K, 30100 kPa	820.7
298.15 K, 35010 kPa	823.76
298.15 K, 39560 kPa	826.52
323.15 K, 590 kPa	779.78
323.15 K, 5940 kPa	784.71
323.15 K, 10600 kPa	788.81
323.15 K, 16000 kPa	793.2
323.15 K, 20640 kPa	796.73
323.15 K, 24880 kPa	799.83
323.15 K, 30800 kPa	803.99
323.15 K, 35220 kPa	807.01
323.15 K, 39790 kPa	810.02
348.15 K, 140 kPa	757.11
348.15 K, 5170 kPa	762.68
348.15 K, 10260 kPa	767.5
348.15 K, 15790 kPa	772.52
348.15 K, 20560 kPa	776.41
348.15 K, 24810 kPa	780.32
348.15 K, 29300 kPa	784.09
348.15 K, 35560 kPa	789.01
348.15 K, 39950 kPa	792.23
373.15 K, 360 kPa	733.24
373.15 K, 5480 kPa	739.29
373.15 K, 10290 kPa	745.11
373.15 K, 15700 kPa	750.9
373.15 K, 19960 kPa	755.19
373.15 K, 25170 kPa	760.17
373.15 K, 30510 kPa	765.02
373.15 K, 35920 kPa	769.7
373.15 K, 39780 kPa	772.91
398.15 K, 620 kPa	705.55
398.15 K, 5670 kPa	713.23
398.15 K, 10620 kPa	720.1
398.15 K, 15580 kPa	726.46
398.15 K, 20350 kPa	732.35
398.15 K, 25090 kPa	737.77
398.15 K, 31150 kPa	744.07
398.15 K, 35410 kPa	748.41
398.15 K, 39390 kPa	752.32
423.15 K, 1570 kPa	674.63
423.15 K, 5870 kPa	682.79
423.15 K, 10160 kPa	690.93
423.15 K, 15320 kPa	699.32
423.15 K, 20500 kPa	707.2
423.15 K, 26280 kPa	715.01
423.15 K, 31600 kPa	721.36
423.15 K, 35780 kPa	726.03
423.15 K, 39700 kPa	730.17
